The test has as its system BDF1 mice, P388 leukemia ip, median survival T/C. The test can be described thus: NCI In Vivo Anticancer Drug Screen. Data for tumor model P388 Leukemia (intraperitoneal) in B6D2F1 (BDF1) mice. Conditions: endpoint: median survival time, higher = longer survival. In short, it runs like this:
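T/C = treated-group survival ÷ vehicle-control survival; tumour transplanted into mice before dosing.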

[1] abbreviates: dose: 100.0 mg/kg/injection, schedule: Q01DX009 (ip), vehicle: Klucel (hydroxypropylcellulose) (HPC).
Setting [2] is: dose: 100.0 mg/kg/injection, schedule: Q04DX003 (ip), vehicle: Klucel (hydroxypropylcellulose) (HPC).
Setting [3] is: dose: 400.0 mg/kg/injection, schedule: Q01DX009 (ip), vehicle: Klucel (hydroxypropylcellulose) (HPC).
Setting [4] is: dose: 400.0 mg/kg/injection, schedule: Q04DX003 (ip), vehicle: Klucel (hydroxypropylcellulose) (HPC).
The mark [5] stands for this setting: dose: 25.0 mg/kg/injection, schedule: Q01DX009 (ip), vehicle: saline with Tween-80.
Setting [6] is: dose: 50.0 mg/kg/injection, schedule: Q01DX009 (ip), vehicle: saline with Tween-80.
[7] abbreviates: dose: 100.0 mg/kg/injection, schedule: Q01DX009 (ip), vehicle: saline with Tween-80.
Where [8] appears, read: dose: 100.0 mg/kg/injection, schedule: Q04DX003 (ip), vehicle: saline with Tween-80.
The mark [9] stands for this setting: dose: 200.0 mg/kg/injection, schedule: Q01DX009 (ip), vehicle: saline with Tween-80.
Setting [10] is: dose: 200.0 mg/kg/injection, schedule: Q04DX003 (ip), vehicle: saline with Tween-80.
Where [11] appears, read: dose: 400.0 mg/kg/injection, schedule: Q04DX003 (ip), vehicle: saline with Tween-80.

Where “and” joins values, the source holds several entries; their conditions need not be identical. Equal entries are not always repeated. Inconclusive results and toxic doses are left out.

Turning to `CCCCc1ccc(NC(=O)N(CCCl)N=O)cc1`, the T/C was 160 % of control (dose: 2.5 mg/kg/injection, schedule: Q01DX009 (ip), vehicle: Klucel (hydroxypropylcellulose) (HPC)); 175 % of control (dose: 2.5 mg/kg/injection, schedule: Q04DX003 (ip), vehicle: Klucel (hydroxypropylcellulose) (HPC)); 180 % of control (dose: 4.0 mg/kg/injection, schedule: Q01DX009 (ip), vehicle: Klucel (hydroxypropylcellulose) (HPC)); 191 % of control (dose: 4.0 mg/kg/injection, schedule: Q04DX003 (ip), vehicle: Klucel (hydroxypropylcellulose) (HPC)); 230 % of control (dose: 8.0 mg/kg/injection, schedule: Q01DX009 (ip), vehicle: Klucel (hydroxypropylcellulose) (HPC)); 208 % of control (dose: 8.0 mg/kg/injection, schedule: Q04DX003 (ip), vehicle: Klucel (hydroxypropylcellulose) (HPC)). In addition, the T/C was 172 % of control (dose: 10.0 mg/kg/injection, schedule: Q04DX003 (ip), vehicle: other); 225 % of control (dose: 16.0 mg/kg/injection, schedule: Q01DX009 (ip), vehicle: Klucel (hydroxypropylcellulose) (HPC)); 233 % of control (dose: 16.0 mg/kg/injection, schedule: Q04DX003 (ip), vehicle: Klucel (hydroxypropylcellulose) (HPC)); 172 % of control (dose: 20.0 mg/kg/injection, schedule: Q04DX003 (ip), vehicle: other); 100 % of control (dose: 32.0 mg/kg/injection, schedule: Q01DX009 (ip), vehicle: Klucel (hydroxypropylcellulose) (HPC)); 222 % of control (dose: 66.0 mg/kg/injection, schedule: Q04DX003 (ip), vehicle: other). For the same compound, the T/C by setting is: (dose: 99.0 mg/kg/injection, schedule: Q04DX003 (ip), vehicle: other) 186 % of control; (dose: 150.0 mg/kg/injection, schedule: Q04DX003 (ip), vehicle: other) 254 % of control; (dose: 225.0 mg/kg/injection, schedule: Q04DX003 (ip), vehicle: other) 245 % of control.

On to `Cc1cc(N(C)C)ccc1C=O`, for which the T/C is, setting by setting: under setting [1], 100 % of control; under setting [2], 100 % of control; (dose: 200.0 mg/kg/injection, schedule: Q01DX009 (ip), vehicle: Klucel (hydroxypropylcellulose) (HPC)) 95 % of control; under setting [3], 109 % of control; under setting [4], 91 % of control.

Consider `CCOC(=O)c1cc(OC(C)=O)c2c(ccc3ccccc32)c1C`, for which the T/C is 91 % of control under setting [2] and 91 % of control under setting [4].

Take `CO[C@@H]([CH2][Hg][S]C#N)[C@@H]([CH2][Hg][S]C#N)OC`: the T/C reads like this: (dose: 6.25 mg/kg/injection, schedule: Q01DX009 (ip), vehicle: other) 110 % of control; (dose: 12.5 mg/kg/injection, schedule: Q01DX009 (ip), vehicle: other) 120 % of control; (dose: 25.0 mg/kg/injection, schedule: Q01DX009 (ip), vehicle: other) 100 % of control and 109 % of control; (dose: 25.0 mg/kg/injection, schedule: Q04DX003 (ip), vehicle: other) 100 % of control; (dose: 50.0 mg/kg/injection, schedule: Q04DX003 (ip), vehicle: other) 103 % of control; (dose: 100.0 mg/kg/injection, schedule: Q04DX003 (ip), vehicle: saline sonified) 90 % of control.

`CC1(c2cccs2)NC(=O)N(Cl)C1=O` (configuration not stated): the T/C was 97 % of control under setting [5]; 94 % of control (dose: 25.0 mg/kg/injection, schedule: Q04DX003 (ip), vehicle: saline with Tween-80); 97 % of control under setting [6]; 102 % of control (dose: 50.0 mg/kg/injection, schedule: Q04DX003 (ip), vehicle: saline with Tween-80); 108 % of control under setting [7]; 104 % of control and 107 % of control under setting [8]. Further, the T/C was 108 % of control under setting [9], 109 % of control under setting [10] and 107 % of control under setting [11].

Take `CO[C@H]1C[C@H](O[C@H]2CC[C@]3(C=O)[C@H]4CC[C@]5(C)[C@@H](C6=CC(=O)OC6)CC[C@]5(O)[C@@H]4CC[C@]3(O)C2)O[C@H](C)[C@H]1O[C@@H]1O[C@H](CO)[C@@H](O)[C@H](O)[C@H]1O`: the T/C reads like this: (dose: 0.25 mg/kg/injection, schedule: Q01DX009 (ip), vehicle: saline) 104 % of control; (dose: 0.25 mg/kg/injection, schedule: Q04DX003 (ip), vehicle: saline) 91 % of control; (dose: 0.5 mg/kg/injection, schedule: Q01DX009 (ip), vehicle: saline) 100 % of control; (dose: 0.5 mg/kg/injection, schedule: Q04DX003 (ip), vehicle: saline) 104 % of control; (dose: 1.0 mg/kg/injection, schedule: Q01DX009 (ip), vehicle: saline) 90 % of control; (dose: 1.0 mg/kg/injection, schedule: Q01DX010 (ip), vehicle: saline) 95 % of control. The T/C was 100 % of control (dose: 1.0 mg/kg/injection, schedule: Q04DX003 (ip), vehicle: saline) and 100 % of control (dose: 2.0 mg/kg/injection, schedule: Q04DX003 (ip), vehicle: saline).

As to `O=c1c2ccccc2[nH]c2cc3c(=O)c4ccccc4[nH]c3cc12`, the T/C is, setting by setting: under setting [6], 99 % of control; under setting [7], 95 % of control; under setting [9], 93 % of control.

On to `[O-][n+]1c(CN2CCCCC2)nc2cccc3c2c1-c1ccccc1-3`, for which the T/C runs as follows: (dose: 12.5 mg/kg/injection, schedule: Q03HX008 (ip), vehicle: saline) 92 % of control; (dose: 12.5 mg/kg/injection, schedule: Q03HX016 (ip), vehicle: saline) 100 % of control; (dose: 12.5 mg/kg/injection, schedule: Q03HX024 (ip), vehicle: saline) 96 % of control; under setting [5], 105 % of control; (dose: 25.0 mg/kg/injection, schedule: Q03HX008 (ip), vehicle: saline) 95 % of control; (dose: 25.0 mg/kg/injection, schedule: Q03HX016 (ip), vehicle: saline) 99 % of control. The T/C runs as follows: (dose: 25.0 mg/kg/injection, schedule: Q03HX024 (ip), vehicle: saline) 93 % of control; (dose: 50.0 mg/kg/injection, schedule: Q01DX009 (ip), vehicle: Klucel (hydroxypropylcellulose) (HPC)) 116 % of control; under setting [6], 108 % of control and 116 % of control; (dose: 50.0 mg/kg/injection, schedule: Q03HX008 (ip), vehicle: saline) 95 % of control; (dose: 50.0 mg/kg/injection, schedule: Q03HX016 (ip), vehicle: saline) 94 % of control; (dose: 50.0 mg/kg/injection, schedule: Q03HX024 (ip), vehicle: saline) 110 % of control. Further, the T/C was 113 % of control (dose: 50.0 mg/kg/injection, schedule: Q08HX027 (ip), vehicle: saline); 100 % of control under setting [1]; 92 % of control (dose: 100.0 mg/kg/injection, schedule: Q03HX008 (ip), vehicle: saline); 90 % of control (dose: 100.0 mg/kg/injection, schedule: Q03HX016 (ip), vehicle: saline); 115 % of control (dose: 100.0 mg/kg/injection, schedule: Q03HX024 (ip), vehicle: saline); 119 % of control (dose: 100.0 mg/kg/injection, schedule: Q08HX027 (ip), vehicle: saline). The T/C reads like this: (dose: 150.0 mg/kg/injection, schedule: Q01DX009 (oral), vehicle: saline) 91 % of control; under setting [9], 158 % of control; (dose: 200.0 mg/kg/injection, schedule: Q01DX009 (ip), vehicle: saline) 222 % of control; (dose: 300.0 mg/kg/injection, schedule: Q01DX009 (oral), vehicle: saline) 95 % of control; under setting [3], 151 % of control; (dose: 400.0 mg/kg/injection, schedule: Q01DX009 (oral), vehicle: saline) 98 % of control. For the same compound, the T/C (dose: 600.0 mg/kg/injection, schedule: Q01DX009 (oral), vehicle: saline) was 103 % of control.

As for `O=S(=O)(Nc1ccc(O)cc1)c1ccccc1`, the T/C was 100 % of control under setting [8], 95 % of control under setting [10] and 104 % of control under setting [11].

For the compound `Cc1ccc(C(=O)N=[N+]=[N-])o1`, under setting [6], the T/C is 108 % of control.
